Measured values from ChEMBL document CHEMBL1240532, “Spiroindolones, a potent compound class for the treatment of malaria” (Science, 2010).
Active and inactive are the calls of the source. No cut-off for these calls is given here.

Key:
Plasmodium falciparum [1] = test: Antimalarial activity against Plasmodium falciparum D6 after 48 hrs incubation by [3H]hypoxanthin incorporation assay
[2] = molecular target: 5-hydroxytryptamine receptor 3A (Homo sapiens, UniProt P46098); test: Binding affinity to human recombinant serotonin 5HT3 receptor
Chain of 5-hydroxytryptamine receptor 3A (P46098 whole entry): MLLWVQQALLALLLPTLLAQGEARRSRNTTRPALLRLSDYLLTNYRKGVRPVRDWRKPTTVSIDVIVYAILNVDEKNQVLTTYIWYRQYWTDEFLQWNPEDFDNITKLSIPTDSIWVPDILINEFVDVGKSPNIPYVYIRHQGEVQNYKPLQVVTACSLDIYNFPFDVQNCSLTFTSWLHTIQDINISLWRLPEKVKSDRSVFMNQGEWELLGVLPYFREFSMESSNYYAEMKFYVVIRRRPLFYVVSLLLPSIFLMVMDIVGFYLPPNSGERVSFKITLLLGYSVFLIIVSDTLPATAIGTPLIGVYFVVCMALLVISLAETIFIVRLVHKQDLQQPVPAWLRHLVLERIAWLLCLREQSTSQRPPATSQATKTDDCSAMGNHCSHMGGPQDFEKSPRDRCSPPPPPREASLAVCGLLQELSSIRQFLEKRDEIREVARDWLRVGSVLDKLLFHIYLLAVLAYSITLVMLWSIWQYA

[3] = molecular target: Gastric inhibitory polypeptide receptor (Rattus norvegicus, UniProt P43219); test: Binding affinity to rat Gip receptor
[4] = Volume of distribution at steady state in CD1 mouse at 5.4 mg/kg, iv; type: ADME, organism-based; set-up: dose 5.4 mg/kg, route intravenous; conditions: in vivo, read-out: Vdss
Melanocortin receptor 4 = Melanocortin receptor 4 (Homo sapiens, UniProt P32245); test: Binding affinity to human recombinant melanocortin MC4 receptor
Chain of Melanocortin receptor 4 (P32245 whole entry): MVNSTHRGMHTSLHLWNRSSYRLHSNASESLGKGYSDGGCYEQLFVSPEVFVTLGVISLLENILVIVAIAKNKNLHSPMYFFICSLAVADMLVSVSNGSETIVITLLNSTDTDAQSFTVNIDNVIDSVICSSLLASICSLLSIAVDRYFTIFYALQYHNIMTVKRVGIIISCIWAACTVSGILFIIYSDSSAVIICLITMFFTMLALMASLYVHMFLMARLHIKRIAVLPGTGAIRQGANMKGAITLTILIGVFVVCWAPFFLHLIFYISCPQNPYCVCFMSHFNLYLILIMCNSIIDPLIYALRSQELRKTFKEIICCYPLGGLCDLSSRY

Plasmodium falciparum [5] = type: functional, organism-based; conditions: Dd2, 72 h, read-out: IC50
[6] = Intrinsic clearance in human liver microsome; type: ADME; conditions: liver microsomes
Glucocorticoid receptor = Glucocorticoid receptor (Homo sapiens, UniProt P04150); test: Binding affinity to human recombinant glucocorticoid receptor
[7] = Clearance in CD1 mouse at 5.4 mg/kg, iv; type: ADME, organism-based; set-up: dose 5.4 mg/kg, route intravenous; conditions: in vivo
Plasmodium falciparum [8] = test: Antimalarial activity against Plasmodium falciparum 3D7 assessed as parasite growth inhibition at 1.6 nM after24 hrs by [3H]hypoxanthin incorporation assay; type: functional
Estrogen receptor = Estrogen receptor (Homo sapiens, UniProt P03372); test: Binding affinity to human recombinant ERalpha
Chain of Estrogen receptor (P03372 whole entry): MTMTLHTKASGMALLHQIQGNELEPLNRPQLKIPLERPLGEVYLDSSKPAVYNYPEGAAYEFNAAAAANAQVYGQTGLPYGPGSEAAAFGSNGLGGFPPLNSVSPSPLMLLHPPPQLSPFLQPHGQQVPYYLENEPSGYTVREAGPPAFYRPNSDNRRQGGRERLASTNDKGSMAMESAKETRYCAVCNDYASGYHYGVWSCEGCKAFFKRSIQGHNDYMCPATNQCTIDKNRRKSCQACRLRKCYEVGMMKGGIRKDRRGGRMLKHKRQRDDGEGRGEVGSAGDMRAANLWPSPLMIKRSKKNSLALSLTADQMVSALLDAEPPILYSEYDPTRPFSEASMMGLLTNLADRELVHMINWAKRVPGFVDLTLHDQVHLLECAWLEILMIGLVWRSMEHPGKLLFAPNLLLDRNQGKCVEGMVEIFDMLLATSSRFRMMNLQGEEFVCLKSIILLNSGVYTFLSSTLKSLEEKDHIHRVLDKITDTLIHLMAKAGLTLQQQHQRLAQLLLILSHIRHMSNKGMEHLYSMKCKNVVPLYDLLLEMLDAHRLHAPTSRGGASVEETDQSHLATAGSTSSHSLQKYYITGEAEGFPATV

Cannabinoid receptor 1 = Cannabinoid receptor 1 (Homo sapiens, UniProt P21554); test: Binding affinity to human recombinant cannabinoid 1 receptor
[9] = molecular target: Gastrin/cholecystokinin type B receptor (Homo sapiens, UniProt P32239); test: Binding affinity to human recombinant cholecystokinin B receptor
Plasmodium falciparum [10] = test: Antimalarial activity against Plasmodium falciparum NF54 after 48 hrs incubation by [3H]hypoxanthin incorporation assay
Plasmodium falciparum [11] = test: Inhibition of protein synthesis in NITD609-resistant Plasmodium falciparum Dd2 Clone1 within 1 hrs by [35S]Met/Cys incorporation assay; type: functional
Plasmodium berghei [12] = test: Antimalarial activity against Plasmodium berghei GFP ANKA infected in NMRI mice (Mus musculus) assessed as survival at 10 mg/kg, perorally administered as single dose as single dose 24 hrs post infection for 1 day measured 72 hrs post infection; type: functional; conditions: route oral
Plasmodium falciparum [13] = test: Antimalarial activity against NITD609-resistant Plasmodium falciparum Dd2 Clone1 bearing P-type ATPase4 I398F and P990R mutations after 72 hrs by SYBR green based fluorescence assay; type: functional, organism-based; conditions: Dd2, 72 h
Melanocortin receptor 3 = Melanocortin receptor 3 (Homo sapiens, UniProt P41968); test: Binding affinity to human recombinant melanocortin MC3 receptor
[14] = molecular target: Muscarinic acetylcholine receptor M1 (Homo sapiens, UniProt P11229); test: Binding affinity to human recombinant muscarinic M1 receptor
[15] = molecular target: Beta-2 adrenergic receptor (Homo sapiens, UniProt P07550); test: Binding affinity to human recombinant adrenergic beta2 receptor
Chain of Beta-2 adrenergic receptor (P07550 whole entry): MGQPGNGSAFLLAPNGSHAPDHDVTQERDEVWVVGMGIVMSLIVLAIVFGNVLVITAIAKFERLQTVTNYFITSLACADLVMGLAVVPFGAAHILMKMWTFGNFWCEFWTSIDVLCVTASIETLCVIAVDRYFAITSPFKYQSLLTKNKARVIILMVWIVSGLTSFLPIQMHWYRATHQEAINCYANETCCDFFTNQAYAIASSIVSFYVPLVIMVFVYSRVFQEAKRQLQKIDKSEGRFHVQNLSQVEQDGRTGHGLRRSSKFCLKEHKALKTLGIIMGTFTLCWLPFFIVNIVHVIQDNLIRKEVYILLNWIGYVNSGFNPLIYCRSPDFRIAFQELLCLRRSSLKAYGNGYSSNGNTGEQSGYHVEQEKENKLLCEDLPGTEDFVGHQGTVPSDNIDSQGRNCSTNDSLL

D(3) dopamine receptor = D(3) dopamine receptor (Homo sapiens, UniProt P35462); test: Binding affinity to human recombinant dopamine D3 receptor
Chain of D(3) dopamine receptor (P35462 whole entry): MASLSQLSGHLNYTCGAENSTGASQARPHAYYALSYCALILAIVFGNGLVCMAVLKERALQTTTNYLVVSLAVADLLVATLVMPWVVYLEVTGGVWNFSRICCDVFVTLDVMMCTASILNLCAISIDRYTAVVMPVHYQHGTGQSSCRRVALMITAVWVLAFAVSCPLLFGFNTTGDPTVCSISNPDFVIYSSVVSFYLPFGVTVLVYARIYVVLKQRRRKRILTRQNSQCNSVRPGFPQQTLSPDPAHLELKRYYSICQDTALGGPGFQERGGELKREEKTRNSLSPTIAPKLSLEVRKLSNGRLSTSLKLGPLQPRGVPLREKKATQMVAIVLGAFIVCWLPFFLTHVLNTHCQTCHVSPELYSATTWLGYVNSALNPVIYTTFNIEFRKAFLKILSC

Adenosine receptor A3 = Adenosine receptor A3 (Homo sapiens, UniProt P0DMS8); test: Binding affinity to human recombinant adenosine 3 receptor
D(4) dopamine receptor = D(4) dopamine receptor (Homo sapiens, UniProt P21917); test: Binding affinity to human recombinant dopamine D4.4 receptor
[16] = molecular target: 5-hydroxytryptamine receptor 1A (Homo sapiens, UniProt P08908); test: Binding affinity to human recombinant serotonin 5-HT1A receptor
Adenosine receptor A2a = Adenosine receptor A2a (Homo sapiens, UniProt P29274); test: Binding affinity to human recombinant adenosine 2a receptor
[17] = Mutagenic activity in Salmonella Typhimurium by Ames test; type: toxicity; conditions: salmonella enterica subsp. enterica serovar typhimurium
Vasopressin V1a receptor = Vasopressin V1a receptor (Homo sapiens, UniProt P37288); test: Binding affinity to human recombinant vasopressin V1a receptor
B1 bradykinin receptor = B1 bradykinin receptor (Homo sapiens, UniProt P46663); test: Binding affinity to human recombinant bradykinin B1 receptor
Chain of B1 bradykinin receptor (P46663 whole entry): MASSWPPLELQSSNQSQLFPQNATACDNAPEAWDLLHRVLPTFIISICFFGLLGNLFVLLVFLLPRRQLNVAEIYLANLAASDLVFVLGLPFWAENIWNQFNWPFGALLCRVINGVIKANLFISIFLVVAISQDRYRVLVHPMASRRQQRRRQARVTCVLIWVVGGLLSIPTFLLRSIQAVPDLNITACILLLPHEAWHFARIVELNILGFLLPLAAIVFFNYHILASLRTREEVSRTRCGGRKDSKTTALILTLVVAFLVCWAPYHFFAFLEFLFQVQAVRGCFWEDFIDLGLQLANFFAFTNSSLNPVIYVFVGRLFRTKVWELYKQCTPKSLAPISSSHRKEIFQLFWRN

[18] = molecular target: GABA-A receptor; agonist GABA site; test: Binding affinity to human recombinant GABAA receptor; type: protein-complex assay
[19] = molecular target: Sodium-dependent dopamine transporter (Homo sapiens, UniProt Q01959); test: Binding affinity to human recombinant dopamine transporter
Chain of Sodium-dependent dopamine transporter (Q01959 whole entry): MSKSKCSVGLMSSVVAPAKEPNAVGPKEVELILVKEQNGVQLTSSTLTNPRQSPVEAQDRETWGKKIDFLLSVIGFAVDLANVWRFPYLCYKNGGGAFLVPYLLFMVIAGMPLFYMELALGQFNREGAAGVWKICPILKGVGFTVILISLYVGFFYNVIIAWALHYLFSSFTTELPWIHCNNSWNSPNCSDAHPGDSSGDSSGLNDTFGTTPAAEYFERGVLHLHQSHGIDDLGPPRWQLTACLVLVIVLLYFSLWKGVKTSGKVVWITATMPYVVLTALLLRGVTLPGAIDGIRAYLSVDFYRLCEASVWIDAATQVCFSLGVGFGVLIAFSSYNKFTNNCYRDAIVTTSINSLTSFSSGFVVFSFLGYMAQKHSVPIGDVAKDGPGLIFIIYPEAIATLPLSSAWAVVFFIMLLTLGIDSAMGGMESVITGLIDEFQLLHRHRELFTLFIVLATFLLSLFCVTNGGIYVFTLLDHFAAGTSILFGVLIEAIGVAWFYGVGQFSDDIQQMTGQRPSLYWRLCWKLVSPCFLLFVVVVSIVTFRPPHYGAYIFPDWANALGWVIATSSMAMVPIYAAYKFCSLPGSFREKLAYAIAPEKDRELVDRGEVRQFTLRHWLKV

Plasmodium falciparum [20] = test: microbe, parasite or virus in culture; conditions: Dd2, 72 h
Description: Antimalarial activity against Plasmodium falciparum Dd2 containing attB site inserted in parasite genome and using EF1-alpha promoter driven expressing ATP4 D1247Y mutant after 72 hrs by SYBR green based fluorescence assay

[21] = molecular target: Muscarinic acetylcholine receptor M3 (Homo sapiens, UniProt P20309); test: Binding affinity to human recombinant muscarinic M3 receptor
[22] = molecular target: Amine oxidase [flavin-containing] A (Homo sapiens, UniProt P21397); test: Binding affinity to human recombinant MAOM
[23] = molecular target: Alpha-1A adrenergic receptor (Homo sapiens, UniProt P35348); test: Binding affinity to human recombinant alpha 1a receptor
[24] = Intrinsic clearance in mouse liver microsome; type: ADME; conditions: liver microsomes
Plasmodium falciparum [25] = test: microbe, parasite or virus in culture; conditions: Dd2, 72 h; remark: listed apart in the source
[26] = AUC (0 to infinity) in Wistar rat at 5 mg/kg, iv; type: ADME, organism-based; set-up: time infinity, dose 5 mg/kg, route intravenous; conditions: plasma
in vivo = conditions: Wistar, rat, po, 23.7 mg/kg
Description: Elimination half life in Wistar rat at 23.7 mg/kg, po

[27] = molecular target: Kappa-type opioid receptor (Homo sapiens, UniProt P41145); test: Binding affinity to human recombinant opiate kappa receptor
[28] = molecular target: Corticotropin-releasing factor receptor 1 (Homo sapiens, UniProt P34998); test: Binding affinity to human recombinant CRF1 receptor
Chain of Corticotropin-releasing factor receptor 1 (P34998 whole entry): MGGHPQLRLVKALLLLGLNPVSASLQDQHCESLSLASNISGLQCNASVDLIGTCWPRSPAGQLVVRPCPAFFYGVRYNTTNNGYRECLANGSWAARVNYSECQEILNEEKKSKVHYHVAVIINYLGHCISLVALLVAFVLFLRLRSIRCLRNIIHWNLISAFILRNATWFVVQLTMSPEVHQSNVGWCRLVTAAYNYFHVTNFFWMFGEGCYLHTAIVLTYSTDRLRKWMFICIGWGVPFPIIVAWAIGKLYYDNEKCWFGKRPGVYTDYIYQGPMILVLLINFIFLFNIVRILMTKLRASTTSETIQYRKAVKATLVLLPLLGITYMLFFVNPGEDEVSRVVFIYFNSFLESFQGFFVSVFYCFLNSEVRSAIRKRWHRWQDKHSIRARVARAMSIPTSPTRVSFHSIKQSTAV

[29] = molecular target: Sodium-dependent serotonin transporter (Homo sapiens, UniProt P31645); test: Binding affinity to human recombinant serotonin transporter
Chain of Sodium-dependent serotonin transporter (P31645 whole entry): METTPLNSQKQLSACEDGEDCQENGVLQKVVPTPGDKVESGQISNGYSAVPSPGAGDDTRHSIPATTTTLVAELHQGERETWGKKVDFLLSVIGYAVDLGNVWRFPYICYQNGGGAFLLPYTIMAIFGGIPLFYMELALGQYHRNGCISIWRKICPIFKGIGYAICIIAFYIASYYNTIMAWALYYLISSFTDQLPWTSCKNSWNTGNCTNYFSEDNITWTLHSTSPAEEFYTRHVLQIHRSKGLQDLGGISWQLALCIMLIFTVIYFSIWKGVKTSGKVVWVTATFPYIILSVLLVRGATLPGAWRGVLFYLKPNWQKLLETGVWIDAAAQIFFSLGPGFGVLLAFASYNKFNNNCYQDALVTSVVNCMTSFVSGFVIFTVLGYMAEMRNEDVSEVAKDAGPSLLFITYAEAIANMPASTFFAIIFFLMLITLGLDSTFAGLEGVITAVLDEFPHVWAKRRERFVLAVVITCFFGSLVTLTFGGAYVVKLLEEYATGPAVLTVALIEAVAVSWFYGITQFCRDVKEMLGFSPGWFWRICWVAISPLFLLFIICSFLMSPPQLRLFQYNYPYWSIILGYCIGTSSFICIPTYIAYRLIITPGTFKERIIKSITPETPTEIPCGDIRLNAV

Plasmodium berghei [30] = test: Antimalarial activity against Plasmodium berghei GFP ANKA infected in NMRI mice (Mus musculus) assessed as cure rate at 50 mg/kg, perorally administered through 0.5% MCM/0.1%solutol HS15 formulation 24 hrs post infection for 3 days measured on day 30 post infection; type: functional; conditions: route oral
[31] = Intrinsic clearance in monkey liver microsome; type: ADME, Macaca mulatta; conditions: rhesus monkey, liver microsomes
[32] = molecular target: Prostaglandin G/H synthase 1 (Homo sapiens, UniProt P23219); test: Binding affinity to human recombinant COX1
[33] = molecular target: Endothelin receptor type B (Homo sapiens, UniProt P24530); test: Binding affinity to human recombinant endothelin B receptor
[34] = Partition coefficient, log P of the compound at pH 7.4; type: physicochemical; conditions: octanol/water
Plasmodium falciparum [35] = test: microbe, parasite or virus in culture; conditions: Dd2, 72 h; remark: listed apart in the source
Description: Antimalarial activity against Plasmodium falciparum Dd2 containing attB site inserted in parasite genome and using CAM promoter driven expressing ATP4 I398F/P990R mutant after 72 hrs by SYBR green based fluorescence assay

[36] = Tmax in CD1 mouse at 24.6 mg/kg, po; type: ADME, organism-based; set-up: dose 24.6 mg/kg, route oral; conditions: in vivo
Plasmodium falciparum [37] = test: Antimalarial activity against Plasmodium falciparum isolates after 42 hrs; type: functional, organism-based
[38] = Oral bioavailability in Wistar rat at 23.7 mg/kg; type: ADME, organism-based; conditions: in vivo
Histamine H3 receptor = Histamine H3 receptor (Homo sapiens, UniProt Q9Y5N1); test: Binding affinity to human recombinant histamine H3 receptor
Chain of Histamine H3 receptor (Q9Y5N1 whole entry): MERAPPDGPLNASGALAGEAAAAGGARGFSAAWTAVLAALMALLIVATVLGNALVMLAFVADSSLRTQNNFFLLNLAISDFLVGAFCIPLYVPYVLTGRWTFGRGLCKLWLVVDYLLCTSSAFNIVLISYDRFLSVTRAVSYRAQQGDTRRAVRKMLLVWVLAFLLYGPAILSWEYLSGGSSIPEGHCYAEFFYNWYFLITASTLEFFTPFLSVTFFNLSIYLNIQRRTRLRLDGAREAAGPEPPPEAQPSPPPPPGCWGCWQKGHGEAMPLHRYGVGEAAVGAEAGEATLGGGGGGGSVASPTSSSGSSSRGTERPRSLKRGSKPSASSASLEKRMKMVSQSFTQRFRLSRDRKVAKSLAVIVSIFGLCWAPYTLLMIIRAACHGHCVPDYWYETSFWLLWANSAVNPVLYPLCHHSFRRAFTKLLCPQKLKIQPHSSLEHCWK

Plasmodium falciparum [39] = test: Antimalarial activity against pyrimethamine-resistant Plasmodium falciparum 7G8 after 48 hrs incubation by [3H]hypoxanthine incorporation assay

SMILES: C[C@H]1Cc2c([nH]c3cc(Cl)c(F)cc23)[C@@]2(N1)C(=O)Nc1ccc(Cl)cc12 [CIPARGAMIN]
- IC50 (Plasmodium falciparum [1]): 0.001 µM
- IC50 [2]: > 10 µM
- IC50 [3]: > 30 µM
- Vd [4]: 2.11 L/kg
- IC50 (Melanocortin receptor 4): > 30 µM
- IC50 (Plasmodium falciparum [5]): 0.0032 µM
- CLint scaled [6]: 8.67 mL/min/kg
- IC50 (Glucocorticoid receptor): > 30 µM
- clearance [7]: 9.75 mL/min/kg
- inhibition at 0.0016 µM (Plasmodium falciparum [8]): > 90%
- IC50 (Estrogen receptor): > 30 µM
- IC50 (Cannabinoid receptor 1): > 10 µM
- IC50 [9]: > 30 µM
- IC50 (Plasmodium falciparum [10]): 0.0005 µM
- inhibition (INH) (Plasmodium falciparum [11]): 50%
- mean survival time at 10 mg/kg (Plasmodium berghei [12]): 13.3 days
- IC50 (Plasmodium falciparum [13]): 0.0109 µM
- IC50 (Melanocortin receptor 3): > 30 µM
- IC50 [14]: > 10 µM
- IC50 [15]: > 10 µM
- IC50 (D(3) dopamine receptor): > 10 µM
- IC50 (Adenosine receptor A3): 8.3 µM
- IC50 (D(4) dopamine receptor): > 10 µM
- IC50 [16]: > 10 µM
- IC50 (Adenosine receptor A2a): > 30 µM
- Activity [17]: Non-toxic
- IC50 (Vasopressin V1a receptor): > 10 µM
- IC50 (B1 bradykinin receptor): > 30 µM
- IC50 [18]: > 10 µM
- IC50 [19]: > 10 µM
- IC50 (Plasmodium falciparum [20]): 0.00157 µM
- IC50 [21]: > 10 µM
- IC50 [22]: > 10 µM
- IC50 [23]: > 10 µM
- CLint scaled [24]: 49.7 mL/min/kg
- IC50 (Plasmodium falciparum [25]): 0.0028 µM
- AUC(0-inf) [26]: 61.3 µM·h
- half-life (in vivo): 27.7 h
- IC50 [27]: > 10 µM
- IC50 [28]: > 30 µM
- IC50 [29]: > 10 µM
- Activity (Plasmodium berghei [30]): 100%
- CLint scaled [31]: 6.05 mL/min/kg
- IC50 [32]: > 30 µM
- IC50 [33]: > 30 µM
- logD [34]: 4.7
- IC50 (Plasmodium falciparum [35]): 0.00425 µM
- Tmax [36]: 1 h
- inhibition (Plasmodium falciparum [37]): Active
- bioavailability [38]: 100%
- IC50 (Histamine H3 receptor): > 10 µM
- IC50 (Plasmodium falciparum [39]): 0.0012 µM
